The source made the active and inactive calls.
Experiments:
Type in all cases: functional
BJ = assay: cytotoxicity toward Ras-transformed BJeLR fibroblasts, dose response, cell-based, alamar blue fluorescence, cherrypicked samples (AID 2631); conditions: Homo sapiens;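 note: confirmatory dose-response assay in RAS-dependent BJ fibroblasts engineered with TERT, LT and ST, with cytotoxicity read by fluorescence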
[1] = target: T1, High affinity choline transporter 1 (Homo sapiens, UniProt Q9GZV3); assay: CHT inhibitors, dose response, cell-based, 10-point CRC, membrane potential dye (AID 588401);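 note: membrane potential dye fluorescence of choline-evoked depolarization via CHT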
T1 sequence (Q9GZV3 whole entry): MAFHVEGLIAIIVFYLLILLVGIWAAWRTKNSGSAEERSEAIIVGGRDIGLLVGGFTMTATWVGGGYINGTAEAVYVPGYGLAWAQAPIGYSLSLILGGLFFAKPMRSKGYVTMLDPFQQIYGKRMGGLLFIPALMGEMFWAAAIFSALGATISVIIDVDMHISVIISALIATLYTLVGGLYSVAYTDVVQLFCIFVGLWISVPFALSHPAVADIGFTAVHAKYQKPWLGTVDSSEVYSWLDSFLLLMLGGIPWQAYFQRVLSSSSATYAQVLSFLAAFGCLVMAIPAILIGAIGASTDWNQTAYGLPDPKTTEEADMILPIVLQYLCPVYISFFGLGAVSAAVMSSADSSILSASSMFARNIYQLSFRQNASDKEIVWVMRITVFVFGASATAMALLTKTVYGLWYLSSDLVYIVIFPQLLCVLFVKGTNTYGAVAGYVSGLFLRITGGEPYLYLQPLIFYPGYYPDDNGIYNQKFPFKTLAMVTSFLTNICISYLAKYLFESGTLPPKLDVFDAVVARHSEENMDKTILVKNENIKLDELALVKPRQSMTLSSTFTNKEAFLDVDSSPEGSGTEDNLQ

[2] = target: T1, High affinity choline transporter 1; assay: inhibitors of CHT choline uptake, dose response, cell-based, 3H-choline uptake, CHT LV-AA trafficking mutant, CRC (AID 602208)
[3] = target: T1, High affinity choline transporter 1; assay: CHT inhibitors, dose response, cell-based, 5-point CRC, membrane potential dye (AID 504840)
[4] = target: Beta-2 adrenergic receptor (Homo sapiens, UniProt P07550); assay: beta2AR agonists driving receptor internalization, dose response, cell-based, FAP fluorogen, flow cytometry, cherry pick 1 (AID 588763)
Phospholipase D1 = Phospholipase D1 (Homo sapiens, UniProt Q13393); assay: PLD1 inhibitor potency in cells, dose response (AID 602151);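 note: cellular PLD1 assay in Calu-1 cells stimulated with PMA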
Phospholipase D2 = Phospholipase D2 (Homo sapiens, UniProt O14939); assay: PLD2 inhibitor potency in cells, dose response (AID 602147);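 note: cellular assay in HEK293 cells overexpressing GFP-tagged PLD2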
Melanocortin receptor 4 = Melanocortin receptor 4 (Homo sapiens, UniProt P32245); assay: MC4R antagonist potency on cAMP, dose response, cell-based, TR-FRET, biased antagonists (AID 602298);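 note: antagonist potency against agonist-stimulated cAMP production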
[5] = nonselective inhibitors of cellular cAMP signaling, dose response, counter-screen for MC4R biased antagonist project, cell-based, TR-FRET cAMP detection (AID 602305);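 note: U2OS cells stimulated with forskolin near its EC80 as the cAMP inducer; potency is for inhibition of forskolin-stimulated cAMP signaling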
Protein RecA = target: T2, Protein RecA (Mycobacterium tuberculosis, UniProt P9WHJ3); assay: Fluorescence Cell-Free Homogeneous Dose Retest to Identify Inhibitors of RecA-Intein Splicing Activity. [Related pubchem assays (depositor defined):AID2097, AID2223, AID489010, AID492950]
T2 sequence (P9WHJ3 whole entry): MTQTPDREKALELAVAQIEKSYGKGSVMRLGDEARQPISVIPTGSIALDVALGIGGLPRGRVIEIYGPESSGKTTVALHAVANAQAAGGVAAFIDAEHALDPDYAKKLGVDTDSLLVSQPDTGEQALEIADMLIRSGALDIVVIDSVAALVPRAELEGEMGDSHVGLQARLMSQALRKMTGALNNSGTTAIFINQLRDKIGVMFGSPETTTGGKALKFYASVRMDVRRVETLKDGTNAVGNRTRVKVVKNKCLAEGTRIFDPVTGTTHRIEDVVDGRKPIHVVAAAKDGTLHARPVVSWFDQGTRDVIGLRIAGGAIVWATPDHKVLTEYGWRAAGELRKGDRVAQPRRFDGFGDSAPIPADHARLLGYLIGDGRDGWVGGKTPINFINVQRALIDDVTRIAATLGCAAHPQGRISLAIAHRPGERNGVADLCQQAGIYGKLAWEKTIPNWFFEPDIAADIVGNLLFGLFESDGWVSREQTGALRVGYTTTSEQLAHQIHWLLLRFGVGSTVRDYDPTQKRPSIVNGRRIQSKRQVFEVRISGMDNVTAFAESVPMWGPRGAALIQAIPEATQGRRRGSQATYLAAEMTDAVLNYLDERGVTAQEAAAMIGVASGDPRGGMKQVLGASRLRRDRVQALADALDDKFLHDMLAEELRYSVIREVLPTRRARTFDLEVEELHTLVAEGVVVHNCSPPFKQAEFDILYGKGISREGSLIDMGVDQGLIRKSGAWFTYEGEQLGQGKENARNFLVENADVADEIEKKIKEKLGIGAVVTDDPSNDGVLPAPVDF

[6] = target: T3, Microphthalmia-associated transcription factor (Homo sapiens, UniProt O75030); assay: TRPM1 promoter luciferase signal decrease, dose response, MITF inhibitor project, cell-based, SK-MEL-5, cherry-picked, set 3 (AID 493073)
T3 sequence (O75030 whole entry): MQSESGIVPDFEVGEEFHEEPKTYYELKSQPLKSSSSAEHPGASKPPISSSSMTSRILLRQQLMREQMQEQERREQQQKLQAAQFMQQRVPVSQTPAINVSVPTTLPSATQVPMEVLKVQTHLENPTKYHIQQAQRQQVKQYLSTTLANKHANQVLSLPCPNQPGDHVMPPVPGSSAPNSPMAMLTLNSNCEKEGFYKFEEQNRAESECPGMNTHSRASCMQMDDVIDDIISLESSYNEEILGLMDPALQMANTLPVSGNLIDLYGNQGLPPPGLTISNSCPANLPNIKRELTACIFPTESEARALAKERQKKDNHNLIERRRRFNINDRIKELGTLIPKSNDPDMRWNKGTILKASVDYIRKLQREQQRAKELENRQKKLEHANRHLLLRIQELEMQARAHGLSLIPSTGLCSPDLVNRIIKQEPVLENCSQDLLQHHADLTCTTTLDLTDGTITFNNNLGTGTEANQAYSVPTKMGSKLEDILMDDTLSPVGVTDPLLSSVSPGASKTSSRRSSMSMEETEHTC

[7] = target: T4, Replicative DNA helicase DnaB (Mycobacterium tuberculosis, UniProt P9WMR3); assay: DnaB intein splicing inhibitors, dose response, biochemical, cell-free fluorescence (AID 449749)
T4 sequence (P9WMR3 whole entry): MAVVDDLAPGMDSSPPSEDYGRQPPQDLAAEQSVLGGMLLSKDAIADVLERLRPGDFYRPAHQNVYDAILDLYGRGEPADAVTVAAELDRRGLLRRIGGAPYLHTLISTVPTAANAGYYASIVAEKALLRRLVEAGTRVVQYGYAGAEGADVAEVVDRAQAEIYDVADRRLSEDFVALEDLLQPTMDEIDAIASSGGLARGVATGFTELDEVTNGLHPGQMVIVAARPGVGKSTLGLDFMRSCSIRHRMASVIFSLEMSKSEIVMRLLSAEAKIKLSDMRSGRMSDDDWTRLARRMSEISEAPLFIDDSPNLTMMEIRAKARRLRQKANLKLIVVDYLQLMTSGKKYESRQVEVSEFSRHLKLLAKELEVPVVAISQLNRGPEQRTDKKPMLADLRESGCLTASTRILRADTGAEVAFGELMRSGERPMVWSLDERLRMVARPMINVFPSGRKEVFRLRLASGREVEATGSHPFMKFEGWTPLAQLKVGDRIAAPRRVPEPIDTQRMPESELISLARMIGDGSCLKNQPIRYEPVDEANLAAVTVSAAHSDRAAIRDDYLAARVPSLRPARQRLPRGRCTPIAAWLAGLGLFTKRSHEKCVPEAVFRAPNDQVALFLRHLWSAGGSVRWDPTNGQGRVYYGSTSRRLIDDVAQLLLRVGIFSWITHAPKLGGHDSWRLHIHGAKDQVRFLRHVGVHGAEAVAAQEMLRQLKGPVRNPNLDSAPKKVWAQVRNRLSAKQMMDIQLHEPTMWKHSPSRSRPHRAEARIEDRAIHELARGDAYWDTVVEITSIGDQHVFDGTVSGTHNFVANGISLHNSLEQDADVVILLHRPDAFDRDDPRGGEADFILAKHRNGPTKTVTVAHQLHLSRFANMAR

[8] = target: Mitochondrial peptide methionine sulfoxide reductase (Bos taurus, UniProt P54149); assay: Absorbance-based biochemical high throughput dose response assay for activators of Methionine sulfoxide reductase A (MsrA).
[9] = target: T5, Calpain-2 catalytic subunit (Sus scrofa, UniProt P43367); assay: pig calpain II inhibitor potency, dose response, biochemical, fluorogenic peptide substrate (AID 1420)
T5 sequence (P43367 whole entry): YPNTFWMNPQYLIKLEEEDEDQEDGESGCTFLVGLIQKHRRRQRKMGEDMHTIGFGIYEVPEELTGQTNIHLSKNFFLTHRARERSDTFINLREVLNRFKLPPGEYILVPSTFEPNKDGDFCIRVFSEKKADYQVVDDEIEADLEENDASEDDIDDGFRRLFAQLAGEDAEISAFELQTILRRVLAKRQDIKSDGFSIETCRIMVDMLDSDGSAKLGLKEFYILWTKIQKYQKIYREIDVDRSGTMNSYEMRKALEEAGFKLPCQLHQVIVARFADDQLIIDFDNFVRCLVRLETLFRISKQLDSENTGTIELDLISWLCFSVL

Phospholipase D1, sequence (Q13393 whole entry): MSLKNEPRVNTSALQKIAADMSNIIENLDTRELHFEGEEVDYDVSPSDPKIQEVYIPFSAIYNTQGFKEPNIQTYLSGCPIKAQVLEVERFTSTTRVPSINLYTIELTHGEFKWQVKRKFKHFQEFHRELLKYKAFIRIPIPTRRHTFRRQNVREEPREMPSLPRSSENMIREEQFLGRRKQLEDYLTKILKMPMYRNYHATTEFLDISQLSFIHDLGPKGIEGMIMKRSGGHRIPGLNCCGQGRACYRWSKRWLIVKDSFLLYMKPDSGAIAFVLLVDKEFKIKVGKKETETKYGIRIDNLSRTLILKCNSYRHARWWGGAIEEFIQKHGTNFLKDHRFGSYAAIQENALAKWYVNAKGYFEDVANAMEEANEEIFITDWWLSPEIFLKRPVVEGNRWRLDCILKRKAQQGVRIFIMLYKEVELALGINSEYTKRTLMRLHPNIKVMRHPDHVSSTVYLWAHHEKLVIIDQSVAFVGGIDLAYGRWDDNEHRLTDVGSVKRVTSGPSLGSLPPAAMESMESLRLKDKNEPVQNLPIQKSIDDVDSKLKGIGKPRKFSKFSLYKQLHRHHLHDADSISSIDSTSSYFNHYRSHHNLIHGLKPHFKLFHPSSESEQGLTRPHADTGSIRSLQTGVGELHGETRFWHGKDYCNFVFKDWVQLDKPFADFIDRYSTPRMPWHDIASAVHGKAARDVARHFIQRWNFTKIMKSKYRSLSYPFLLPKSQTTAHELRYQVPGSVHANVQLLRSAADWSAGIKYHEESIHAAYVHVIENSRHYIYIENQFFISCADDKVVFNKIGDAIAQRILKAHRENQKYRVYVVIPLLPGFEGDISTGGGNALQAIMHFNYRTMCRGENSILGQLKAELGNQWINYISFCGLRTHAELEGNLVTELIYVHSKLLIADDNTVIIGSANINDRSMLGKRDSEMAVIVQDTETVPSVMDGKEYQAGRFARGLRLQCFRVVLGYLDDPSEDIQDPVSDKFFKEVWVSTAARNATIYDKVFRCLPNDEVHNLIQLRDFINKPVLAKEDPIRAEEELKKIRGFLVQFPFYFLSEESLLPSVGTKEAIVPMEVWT
Phospholipase D2, sequence (O14939 whole entry): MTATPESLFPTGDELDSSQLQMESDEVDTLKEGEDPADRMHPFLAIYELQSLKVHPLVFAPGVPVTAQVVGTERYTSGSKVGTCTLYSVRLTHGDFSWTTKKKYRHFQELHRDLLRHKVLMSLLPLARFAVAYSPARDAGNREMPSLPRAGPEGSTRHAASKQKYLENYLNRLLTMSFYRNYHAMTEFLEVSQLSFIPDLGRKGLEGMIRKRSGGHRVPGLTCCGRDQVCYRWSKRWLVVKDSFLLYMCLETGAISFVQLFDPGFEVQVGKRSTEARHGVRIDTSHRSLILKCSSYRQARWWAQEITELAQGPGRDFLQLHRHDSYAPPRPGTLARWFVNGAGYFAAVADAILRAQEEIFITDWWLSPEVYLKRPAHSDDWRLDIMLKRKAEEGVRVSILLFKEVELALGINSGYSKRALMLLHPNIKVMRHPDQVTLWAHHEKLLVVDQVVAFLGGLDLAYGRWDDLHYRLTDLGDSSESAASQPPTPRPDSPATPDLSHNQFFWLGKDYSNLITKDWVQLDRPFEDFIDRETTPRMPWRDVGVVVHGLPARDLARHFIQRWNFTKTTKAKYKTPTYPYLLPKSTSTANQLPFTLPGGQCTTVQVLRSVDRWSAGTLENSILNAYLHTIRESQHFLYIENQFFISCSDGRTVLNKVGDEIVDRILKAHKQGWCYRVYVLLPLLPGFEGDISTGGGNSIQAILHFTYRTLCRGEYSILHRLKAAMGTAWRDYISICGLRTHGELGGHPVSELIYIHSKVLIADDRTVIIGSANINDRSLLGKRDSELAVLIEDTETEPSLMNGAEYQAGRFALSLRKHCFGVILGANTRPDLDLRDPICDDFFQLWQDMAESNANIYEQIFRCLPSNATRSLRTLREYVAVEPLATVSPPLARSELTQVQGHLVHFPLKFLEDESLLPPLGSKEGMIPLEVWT
Mitochondrial peptide methionine sulfoxide reductase, sequence (P54149 whole entry): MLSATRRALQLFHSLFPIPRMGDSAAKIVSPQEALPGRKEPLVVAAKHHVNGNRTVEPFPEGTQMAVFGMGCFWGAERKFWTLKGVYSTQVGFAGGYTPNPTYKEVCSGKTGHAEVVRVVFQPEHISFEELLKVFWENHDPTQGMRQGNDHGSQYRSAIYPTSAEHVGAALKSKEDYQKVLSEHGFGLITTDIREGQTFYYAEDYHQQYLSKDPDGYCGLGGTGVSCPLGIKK
Beta-2 adrenergic receptor, sequence (P07550 whole entry): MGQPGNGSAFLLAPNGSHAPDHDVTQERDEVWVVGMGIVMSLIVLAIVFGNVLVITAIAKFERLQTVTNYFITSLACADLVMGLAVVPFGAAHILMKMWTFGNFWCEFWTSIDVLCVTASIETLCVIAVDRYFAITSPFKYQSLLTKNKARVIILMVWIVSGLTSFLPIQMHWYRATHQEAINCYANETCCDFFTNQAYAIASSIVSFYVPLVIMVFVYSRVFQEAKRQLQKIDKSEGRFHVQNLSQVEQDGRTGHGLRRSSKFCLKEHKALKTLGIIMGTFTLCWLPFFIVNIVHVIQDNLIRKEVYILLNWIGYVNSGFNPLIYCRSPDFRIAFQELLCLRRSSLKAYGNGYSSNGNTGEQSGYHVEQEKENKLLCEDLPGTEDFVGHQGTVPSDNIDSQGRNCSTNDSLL
Melanocortin receptor 4, sequence (P32245 whole entry): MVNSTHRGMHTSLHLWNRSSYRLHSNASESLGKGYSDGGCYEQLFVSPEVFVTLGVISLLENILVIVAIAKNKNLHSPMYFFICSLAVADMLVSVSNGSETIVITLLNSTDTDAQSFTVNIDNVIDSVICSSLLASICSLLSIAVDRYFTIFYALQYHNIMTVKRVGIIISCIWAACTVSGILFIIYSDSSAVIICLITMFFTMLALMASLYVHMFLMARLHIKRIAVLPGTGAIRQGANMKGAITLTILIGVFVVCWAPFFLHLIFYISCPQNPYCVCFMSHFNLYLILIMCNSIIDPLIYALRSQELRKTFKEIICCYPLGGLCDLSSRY

Question: For `C=C1C(=O)O[C@@H]2C[C@@H](C)[C@H]3C=CC(=O)[C@]3(O)C[C@@H]12`, which EC50 (BJ) is on record?
Answer: 3.09 µM (active)

Question: Which IC50 [1] does the source give for `COc1ccc(C(=O)NC(C)Cc2cnccn2)cc1OC1CCN(C(C)C)CC1` (stereo unspecified) here?
Answer: 4.47 µM (active)

Question: What about the IC50 [2] of the same compound?
Answer: 7.51 µM (active)

Question: And the IC50 [3]?
Answer: 9.9 µM (active)

Question: With `CC1(C)Cc2c(c(N3CCOCC3)nc3sc4c(NCCN)ncnc4c23)CO1` as the compound, how does the EC50 [4] read?
Answer: 0.158 µM (active)

Question: Which IC50 (Phospholipase D1) does the source give for `CC(C)[C@@H](CN1CCC(n2c(=O)[nH]c3ccccc32)CC1)NC(=O)c1ccc2ccccc2c1` here?
Answer: 5.6 µM (active)

Question: And the IC50 (Phospholipase D2)?
Answer: 20 µM (active)

Question: What does the source list for `CSCCC(NC(=O)c1cccc(C)c1)C(=O)OCN1C(=O)c2ccccc2C1=O` (stereo unspecified)?
Answer: IC50 (Melanocortin receptor 4): > 21.5 µM (inactive); IC50 [5]: > 64.6 µM (inactive)

Question: Which results are given for `Cc1ccc(C(=O)N[C@@H](C)CN2CCC(n3c(=O)[nH]c4ccc(F)cc43)CC2)cc1`?
Answer: IC50 (Phospholipase D1): 0.008 µM (active); IC50 (Phospholipase D2): 0.18 µM (active)

Question: Which results are given for `CCNC1=C(Cl)C(=O)c2ccccc2C1=O`?
Answer: EC50 (Protein RecA): 20 µM (active); AC50 [6]: 3.84 µM (active); AC50 [7]: 6.98 µM (active); EC50 [8]: > 104 µM (inactive); IC50 [9]: > 50 µM (not active)
